# Where a name gives a salt, the structure may show the parent alone.
# Biological target: T1, human TRPV4 (Homo sapiens, UniProt Q9HBA0)
# T1 construct: expressed in transfected cells; host or cells: BHK/AC9 cells transduced with BacMam virus
# Test: FLIPR assay for hTRPV4 expressed in BHK cells: inhibition of Agonist Compound-induced calcium signal
# Type: cell-based
# Conditions: hTRPV4 in BHK/AC9 cells, FLIPR calcium signal, agonist at EC80; reported as range class; read-out: IC50
# Protocol: FLIPR Assay for hTRPV4 Expressed in BHK Cells:
# TRPV4 channel activation results in an influx of divalent and monovalent cations including calcium. The resulting changes in intracellular calcium were monitored using a calcium specific fluorescent dye Fluo-4 (MDS Analytical Technologies). BHK/AC9 cells transduced with BacMam virus expressing the human TRPV4 gene at a MOI of 78 were plated in a 384 well poly-D lysine coated plate (15,000 cells/well in 50 μL culture medium containing DMEM/F12 with 15 mM HEPES, 10% FBS, 1% Penicillin-Streptomycin and 1% L-glutamine). Cells were incubated for 24 hours at 37° C. and 5% CO2. Culture medium was then aspirated using a Tecan plate-washer and replaced with 20 μL/well of dye loading buffer: HBSS, 500 μM Brilliant Black (MDS Analytical Technologies), and 2 μM Fluo-4 AM. Dye loaded plates were then incubated in the dark at room temperature for 1-1.5 hours.
# T1 sequence (Q9HBA0 whole entry): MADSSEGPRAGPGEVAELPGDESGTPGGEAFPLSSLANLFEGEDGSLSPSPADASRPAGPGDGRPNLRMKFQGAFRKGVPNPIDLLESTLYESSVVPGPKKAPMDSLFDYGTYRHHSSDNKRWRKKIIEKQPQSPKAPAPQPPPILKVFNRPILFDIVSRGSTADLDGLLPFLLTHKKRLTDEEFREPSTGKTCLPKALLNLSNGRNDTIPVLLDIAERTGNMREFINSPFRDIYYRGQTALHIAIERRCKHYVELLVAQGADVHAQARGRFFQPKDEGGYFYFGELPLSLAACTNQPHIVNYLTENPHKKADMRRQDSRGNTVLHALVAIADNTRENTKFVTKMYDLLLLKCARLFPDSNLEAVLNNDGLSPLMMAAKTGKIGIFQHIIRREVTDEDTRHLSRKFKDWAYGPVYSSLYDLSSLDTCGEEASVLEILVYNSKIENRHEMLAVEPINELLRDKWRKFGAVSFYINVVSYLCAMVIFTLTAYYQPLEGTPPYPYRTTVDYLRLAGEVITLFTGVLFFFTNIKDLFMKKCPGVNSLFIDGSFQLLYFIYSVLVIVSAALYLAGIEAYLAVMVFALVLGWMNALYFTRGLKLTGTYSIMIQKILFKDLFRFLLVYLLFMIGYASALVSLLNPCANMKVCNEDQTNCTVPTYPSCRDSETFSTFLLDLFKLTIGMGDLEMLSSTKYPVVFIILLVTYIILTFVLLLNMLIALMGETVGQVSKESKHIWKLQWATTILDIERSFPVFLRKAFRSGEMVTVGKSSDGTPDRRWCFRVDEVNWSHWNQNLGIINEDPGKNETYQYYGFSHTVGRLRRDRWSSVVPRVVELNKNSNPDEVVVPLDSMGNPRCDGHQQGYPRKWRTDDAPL
row,Compound,IC50 [nM]
1,"N#Cc1ccc(O[C@H]2CN(S(=O)(=O)c3ccc(C(F)(F)F)cc3C#N)C[C@@]2(O)CO)cc1F [Example 1, 4-(((3S,4R)-1-((2-cyano-4-(trifluoromethyl)phenyl)sulfonyl)-4-hydroxy-4-(hydroxymethyl)pyrrolidin-3-yl)oxy)-2-fluorobenzonitrile]",0.1 to 10
2,"N#Cc1cc(C(F)(F)F)ccc1S(=O)(=O)N1C[C@H](Oc2ccc(OC(F)(F)F)cc2)[C@](O)(CO)C1 [Example 50, 2-(((3R,4S)-3-hydroxy-3-(hydroxymethyl)-4-(4-(trifluoromethoxy)phenoxy)pyrrolidin-1-yl)sulfonyl)-5-(trifluoromethyl)benzonitrile]",0.1 to 10
3,"N#Cc1ccc(O[C@H]2CN(S(=O)(=O)c3ccc(C(F)(F)F)cc3C#N)C[C@@]2(O)CO)c(OCC(F)(F)F)c1 [Example 167, 2-(((3R,4S)-4-(4-cyano-2-(2,2,2-trifluoroethoxy)phenoxy)-3-hydroxy-3-(hydroxymethyl)pyrrolidin-1-yl)sulfonyl)-5-(trifluoromethyl)benzonitrile]",0.1 to 10
4,"N#Cc1cc(F)ccc1S(=O)(=O)N1C[C@H](Oc2ccc(Cl)cc2)[C@@](O)(CO)C1 [Example 147, 2-(((3S,4S)-4-(4-chlorophenoxy)-3-hydroxy-3-(hydroxymethyl)pyrrolidin-1-yl)sulfonyl)-5-fluorobenzonitrile]",10 to 100
5,"Cc1ccc(S(=O)(=O)N2C[C@H](Oc3ccc(C#N)nc3)[C@](O)(CO)C2)c(Cl)c1 [Example 75, 5-(((3S,4R)-1-((2-chloro-4-methylphenyl)sulfonyl)-4-hydroxy-4-(hydroxymethyl)pyrrolidin-3-yl)oxy)picolinonitrile]",10 to 100
6,"N#Cc1ccc(S(=O)(=O)N2C[C@H](Oc3ccc(C(F)(F)F)cc3)[C@](O)(CO)C2)c(Cl)c1 [Example 150, 3-chloro-4-(((3R,4S)-3-hydroxy-3-(hydroxymethyl)-4-(4-(trifluoromethyl)phenoxy)pyrrolidin-1-yl)sulfonyl)benzonitrile]",10 to 100
7,"O=S(=O)(c1ccc(Cl)cc1Cl)N1C[C@H](Oc2ccc(F)c(F)c2)[C@](O)(CO)C1 [Example 4, (3R,4S)-1-((2,4-dichlorophenyl)sulfonyl)-4-(3,4-difluorophenoxy)-3-(hydroxymethyl)pyrrolidin-3-ol]",10 to 100
8,"Cc1ccc(S(=O)(=O)N2C[C@H](Oc3cc(F)c(C#N)cc3OCC(C)C)[C@](O)(CO)C2)nn1 [Example 188, 2-fluoro-4-(((3S,4R)-4-hydroxy-4-(hydroxymethyl)-1-((6-methylpyridazin-3-yl)sulfonyl)pyrrolidin-3-yl)oxy)-5-isobutoxybenzonitrile]",10 to 100
9,"N#Cc1ccc(O[C@H]2CN(S(=O)(=O)c3ccc(C#N)nc3)C[C@@]2(O)CO)c(OCC(F)(F)F)c1 [Example 184, 5-(((3R,4S)-4-(4-cyano-2-(2,2,2-trifluoroethoxy)phenoxy)-3-hydroxy-3-(hydroxymethyl)pyrrolidin-1-yl)sulfonyl) picolinonitrile]",10 to 100
10,"N#Cc1ccc(O[C@H]2CN(S(=O)(=O)c3ccc(OC(F)(F)F)nc3)C[C@@]2(O)CN)cc1F [Example 249, 4-(((3S,4S)-4-(aminomethyl)-4-hydroxy-1-((6-(trifluoromethoxy)pyridin-3-yl)sulfonyl)pyrrolidin-3-yl)oxy)-2-fluorobenzonitrile, Hydrochloride]",10 to 100
11,"N#Cc1ccc(O[C@H]2CN(S(=O)(=O)c3ccc(Cl)cn3)C[C@@]2(O)CN)cc1F [Example 233, 4-(((3S,4S)-4-(aminomethyl)-1-((5-chloropyridin-2-yl)sulfonyl)-4-hydroxypyrrolidin-3-yl)oxy)-2-fluorobenzonitrile, Hydrochloride]",10 to 100
12,"N#Cc1ccc(O[C@H]2CN(S(=O)(=O)c3ccc(OC(F)(F)F)cn3)C[C@@]2(O)CO)cc1F [Example 127, 2-fluoro-4-(((3S,4R)-4-hydroxy-4-(hydroxymethyl)-1-((5-(trifluoromethoxy)pyridin-2-yl)sulfonyl)pyrrolidin-3-yl)oxy)benzonitrile]",100 to 1000
13,"N#Cc1ccc(O[C@H]2CN(S(=O)(=O)c3ccc(Cl)cc3)C[C@@]2(O)CO)cc1F [Example 101, 4-(((3S,4R)-1-((4-chlorophenyl)sulfonyl)-4-hydroxy-4-(hydroxymethyl)pyrrolidin-3-yl)oxy)-2-fluorobenzonitrile]",10 to 100
14,"N#Cc1ccc(S(=O)(=O)N2C[C@H](Oc3ccc(C#N)c(F)c3)[C@](O)(CO)C2)c(Cl)c1 [Example 97, 4-(((3S,4R)-1-((2-chloro-4-cyanophenyl)sulfonyl)-4-hydroxy-4-(hydroxymethyl)pyrrolidin-3-yl)oxy)-2-fluorobenzonitrile]",0.1 to 10
15,"N#Cc1ccccc1S(=O)(=O)N1C[C@H](Oc2ccc(Cl)cc2)[C@](O)(CO)C1 [Example 107, 2-(((3R,4S)-4-(4-chlorophenoxy)-3-hydroxy-3-(hydroxymethyl)pyrrolidin-1-yl)sulfonyl)benzonitrile]",10 to 100
16,"COc1cc(C#N)ccc1S(=O)(=O)N1C[C@H](Oc2ccc(C#N)c(F)c2)[C@](O)(CO)C1 [Example 104, 4-(((3S,4R)-1-((4-cyano-2-methoxyphenyl)sulfonyl)-4-hydroxy-4-(hydroxymethyl)pyrrolidin-3-yl)oxy)-2-fluorobenzonitrile]",10 to 100
17,"N#Cc1ncccc1S(=O)(=O)N1C[C@H](Oc2ccc(Cl)cc2)[C@](O)(CO)C1 [Example 110, 3-(((3R,4S)-4-(4-chlorophenoxy)-3-hydroxy-3-(hydroxymethyl)pyrrolidin-1-yl)sulfonyl)picolinonitrile]",10 to 100
18,"N#Cc1ccccc1S(=O)(=O)N1C[C@H](Oc2ccc(C(F)(F)F)cc2)[C@](O)(CO)C1 [Example 56, 2-(((3R,4S)-3-hydroxy-3-(hydroxymethyl)-4-(4-(trifluoromethyl)phenoxy)pyrrolidin-1-yl)sulfonyl)benzonitrile]",10 to 100
19,"N#Cc1cc(F)ccc1S(=O)(=O)N1C[C@H](Oc2ccc(C(F)(F)F)cc2)[C@](O)(CO)C1 [Example 153, 5-fluoro-2-(((3R,4S)-3-hydroxy-3-(hydroxymethyl)-4-(4-(trifluoromethyl)phenoxy)pyrrolidin-1-yl)sulfonyl)benzonitrile]",0.1 to 10
20,"N#Cc1cc(C(F)(F)F)ccc1S(=O)(=O)N1C[C@H](Oc2cnc(C(F)(F)F)nc2)[C@](O)(CO)C1 [Example 55, 2-(((3R,4S)-3-hydroxy-3-(hydroxymethyl)-4-((2-(trifluoromethyl)pyrimidin-5-yl)oxy)pyrrolidin-1-yl)sulfonyl)-5-(trifluoromethyl)benzonitrile]",10 to 100
21,"N#Cc1ccc(O[C@H]2CN(S(=O)(=O)c3cccc(Cl)c3C#N)C[C@@]2(O)CO)cc1F [Example 95, 4-(((3S,4R)-1-((3-chloro-2-cyanophenyl)sulfonyl)-4-hydroxy-4-(hydroxymethyl)pyrrolidin-3-yl)oxy)-2-fluorobenzonitrile]",0.1 to 10
22,"N#Cc1cc(C(F)(F)F)ccc1S(=O)(=O)N1C[C@H](Oc2ccc(F)c(F)c2)[C@](O)(CO)C1 [Example 25, 2-(((3R,4S)-4-(3,4-difluorophenoxy)-3-hydroxy-3-(hydroxymethyl)pyrrolidin-1-yl)sulfonyl)-5-(trifluoromethyl)benzonitrile]",0.1 to 10

# Source: patent US11229623B2 (GlaxoSmithKline Intellectual Property (No.2) Limited, priority 2016, dated 2022)
